This is an account of results in publication PMC5218480 (PLoS ONE, 2017).

The test system of the assay is MV-4-11 cells. Nature of the assay: Gene expression microarray analysis (Affymetrix PrimeView) and GSEA. Format: cell-based, human. On the set-up: RFU PODN (11730768_x_at) / Fold change /veh PODN (11730768_x_at) / RFU LINC00158 (11744669_a_at) / Fold change /veh LINC00158 (11744669_a_at) / RFU DUSP10 (11751237_a_at) / Fold change /veh DUSP10 (11751237_a_at) / RFU ID3 (11757404_x_at) / Fold change /veh ID3 (11757404_x_at) / RFU PLEKHG5 (11737974_s_at) / Fold change /veh PLEKHG5 (11737974_s_at) / RFU LRRC4B (11730491_at) / Fold change /veh LRRC4B (11730491_at) / RFU GIMAP4 (11747438_a_at) / Fold change /veh GIMAP4 (11747438_a_at) / RFU KRT8 (11758183_x_at) / Fold change /veh KRT8 (11758183_x_at) / RFU CNN1 (11734310_a_at) / Fold change /veh CNN1 (11734310_a_at) / RFU VPS37D (11726825_at) / Fold change /veh VPS37D (11726825_at) / RFU C10orf10 (11716522_x_at) / Fold change /veh C10orf10 (11716522_x_at) / RFU KIR2DL2 /// KIR2DL4 /// KIR2DL5A /// KIR2DL5B /// KIR2DS1 /// KIR2DS2 /// KIR2DS3 /// KIR2DS4 /// KIR3DL3 /// KIR3DL3 /// KIR3DS1 (11738374_at) / Fold change /veh KIR2DL2 /// KIR2DL4 /// KIR2DL5A /// KIR2DL5B /// KIR2DS1 /// KIR2DS2 /// KIR2DS3 /// KIR2DS4 /// KIR3DL3 /// KIR3DL3 /// KIR3DS1 (11738374_at) / RFU C1QL1 (11718748_at) / Fold change /veh C1QL1 (11718748_at) / RFU TMPRSS4 (11747572_a_at) / Fold change /veh TMPRSS4 (11747572_a_at) / RFU HAMP (11756126_x_at) / Fold change /veh HAMP (11756126_x_at) / RFU RNFT2 (11725882_a_at) / Fold change /veh RNFT2 (11725882_a_at) / RFU NR4A2 (11747474_a_at) / Fold change /veh NR4A2 (11747474_a_at) / RFU ABCC12 (11746883_a_at) / Fold change /veh ABCC12 (11746883_a_at) / RFU TMEM136 (11760407_x_at) / Fold change /veh TMEM136 (11760407_x_at) / RFU CLDN22 /// WWC2 (11732394_at) / Fold change /veh CLDN22 /// WWC2 (11732394_at) / RFU HLA-DPB1 (11760878_x_at) / Fold change /veh HLA-DPB1 (11760878_x_at) / RFU SPINT1 (11716480_a_at) / Fold change /veh SPINT1 (11716480_a_at) / RFU GAP43 (11754022_s_at) / Fold change /veh GAP43 (11754022_s_at) / RFU A4GNT (11735810_at) / Fold change /veh A4GNT (11735810_at) / RFU PRB3 (11715151_x_at) / Fold change /veh PRB3 (11715151_x_at) / RFU TUBB4B (11761932_at) / Fold change /veh TUBB4B (11761932_at) / RFU CAPN14 (11732068_a_at) / Fold change /veh CAPN14 (11732068_a_at) / RFU TMCC2 (11721928_a_at) / Fold change /veh TMCC2 (11721928_a_at) / RFU IRGQ (11745062_a_at) / Fold change /veh IRGQ (11745062_a_at) / RFU FAM174B (11720279_a_at) / Fold change /veh FAM174B (11720279_a_at) / RFU TMPRSS4 (11748680_a_at) / Fold change /veh TMPRSS4 (11748680_a_at) / RFU FAM212B (11763350_a_at) / Fold change /veh FAM212B (11763350_a_at) / RFU PLEKHG5 (11743358_a_at) / Fold change /veh PLEKHG5 (11743358_a_at) / RFU ZSCAN30 (11745921_a_at) / Fold change /veh ZSCAN30 (11745921_a_at) / RFU CMKLR1 (11741424_a_at) / Fold change /veh CMKLR1 (11741424_a_at) / RFU LOC101060620 /// MAPK8IP1 (11723275_at) / Fold change /veh LOC101060620 /// MAPK8IP1 (11723275_at) / RFU SPTSSB (11747773_x_at) / Fold change /veh SPTSSB (11747773_x_at) / RFU PRSS12 (11739890_at) / Fold change /veh PRSS12 (11739890_at) / RFU BIN1 (11741810_x_at) / Fold change /veh BIN1 (11741810_x_at) / RFU WNT11 (11732464_a_at) / Fold change /veh WNT11 (11732464_a_at) / RFU C10orf10 (11716521_a_at) / Fold change /veh C10orf10 (11716521_a_at) / RFU C5orf56 (11738089_at) / Fold change /veh C5orf56 (11738089_at) / RFU CYB561 (11721691_x_at) / Fold change /veh CYB561 (11721691_x_at) / RFU ANKRD19P (11752326_a_at) / Fold change /veh ANKRD19P (11752326_a_at) / RFU OR2T12 /// OR2T33 /// OR2T8 (11738714_s_at) / Fold change /veh OR2T12 /// OR2T33 /// OR2T8 (11738714_s_at) / RFU VCAN (11748164_a_at) / Fold change /veh VCAN (11748164_a_at) / RFU JSRP1 (11732532_at) / Fold change /veh JSRP1 (11732532_at) / RFU KRTAP10-11 (11738290_x_at) / Fold change /veh KRTAP10-11 (11738290_x_at) / RFU MYO3A (11730013_a_at) / Fold change /veh MYO3A (11730013_a_at) / RFU EBF3 (11725865_a_at) / Fold change /veh EBF3 (11725865_a_at) / RFU CAMK2N1 (11719241_x_at) / Fold change /veh CAMK2N1 (11719241_x_at) / RFU C5orf56 (11738088_a_at) / Fold change /veh C5orf56 (11738088_a_at) / RFU OLFML3 (11715873_a_at) / Fold change /veh OLFML3 (11715873_a_at) / RFU LOC100653217 /// NTM (11731650_a_at) / Fold change /veh LOC100653217 /// NTM (11731650_a_at) / RFU MAPK11 (11762145_a_at) / Fold change /veh MAPK11 (11762145_a_at) / RFU FIZ1 (11724087_x_at) / Fold change /veh FIZ1 (11724087_x_at) / RFU OASL (11726364_x_at) / Fold change /veh OASL (11726364_x_at) / RFU SOX15 (11748057_x_at) / Fold change /veh SOX15 (11748057_x_at) / RFU CD79A (11719716_a_at) / Fold change /veh CD79A (11719716_a_at) / RFU HIST1H1D (11736915_at) / Fold change /veh HIST1H1D (11736915_at) / RFU CASKIN2 (11723855_a_at) / Fold change /veh CASKIN2 (11723855_a_at) / RFU LOC730098 (11760151_x_at) / Fold change /veh LOC730098 (11760151_x_at) / RFU OR4N2 (11742367_at) / Fold change /veh OR4N2 (11742367_at) / RFU PRRT2 (11749266_a_at) / Fold change /veh PRRT2 (11749266_a_at) / RFU SNX32 (11753110_a_at) / Fold change /veh SNX32 (11753110_a_at) / RFU CDHR5 (11726645_a_at) / Fold change /veh CDHR5 (11726645_a_at) / RFU RCAN1 (11760418_a_at) / Fold change /veh RCAN1 (11760418_a_at) / RFU FAM167A (11723789_a_at) / Fold change /veh FAM167A (11723789_a_at) / RFU FAM26E (11764081_at) / Fold change /veh FAM26E (11764081_at) / RFU ISYNA1 (11749810_s_at) / Fold change /veh ISYNA1 (11749810_s_at) / RFU ACY1 (11761880_at) / Fold change /veh ACY1 (11761880_at) / RFU 11764098_at / Fold change /veh 11764098_at / RFU SAMD14 (11745864_x_at) / Fold change /veh SAMD14 (11745864_x_at) / RFU NPB (11741838_a_at) / Fold change /veh NPB (11741838_a_at) / RFU TMPRSS6 (11731388_a_at) / Fold change /veh TMPRSS6 (11731388_a_at) / RFU KRTAP10-2 (11738614_at) / Fold change /veh KRTAP10-2 (11738614_at) / RFU ARHGAP8 /// PRR5-ARHGAP8 (11727945_x_at) / Fold change /veh ARHGAP8 /// PRR5-ARHGAP8 (11727945_x_at) / RFU KRTAP5-7 /// NADSYN1 (11734609_at) / Fold change /veh KRTAP5-7 /// NADSYN1 (11734609_at) / RFU RASL12 (11751679_a_at) / Fold change /veh RASL12 (11751679_a_at) / RFU CDKN2B (11736163_a_at) / Fold change /veh CDKN2B (11736163_a_at) / RFU PRF1 (11729649_at) / Fold change /veh PRF1 (11729649_at) / RFU, ZNF638 /// ZNF638-IT1 / Fold change vs veh, ZNF638 /// ZNF638-IT1 / RFU, PANK3 / Fold change vs veh, PANK3 / RFU, SH3YL1 / Fold change vs veh, SH3YL1 / RFU, ZEB2 / Fold change vs veh, ZEB2 / RFU, NRIP1 / Fold change vs veh, NRIP1 / RFU, PTTG1IP / Fold change vs veh, PTTG1IP / RFU, CAPN2 / Fold change vs veh, CAPN2 / RFU, MED14 / Fold change vs veh, MED14 / RFU, SNORA58 / Fold change vs veh, SNORA58 / RFU, C1orf63 / Fold change vs veh, C1orf63 / RFU, LRRFIP1 / Fold change vs veh, LRRFIP1 / RFU, NDUFAF7 / Fold change vs veh, NDUFAF7 / RFU, SLC12A2 / Fold change vs veh, SLC12A2 / RFU, IBTK / Fold change vs veh, IBTK / RFU, ESF1 / Fold change vs veh, ESF1 / Fold change vs veh, TMEM50B / RFU, TAOK1 / Fold change vs veh, TAOK1 / RFU, ACBD3 / Fold change vs veh, ACBD3 / RFU, TMA16 / Fold change vs veh, TMA16 / RFU, RWDD3 / Fold change vs veh, RWDD3 / RFU, BCAT1 / Fold change vs veh, BCAT1 / RFU, EDEM3 / Fold change vs veh, EDEM3 / RFU, TMEM33 / Fold change vs veh, TMEM33 / RFU, WDR75 / Fold change vs veh, WDR75 / RFU, AHCTF1 / Fold change vs veh, AHCTF1 / RFU, TFRC / Fold change vs veh, TFRC / RFU, ZDHHC17 / Fold change vs veh, ZDHHC17 / RFU, NOM1 / Fold change vs veh, NOM1 / RFU, ARL8B / Fold change vs veh, ARL8B / RFU, ZBTB11 / Fold change vs veh, ZBTB11 / RFU, TAMM41 / Fold change vs veh, TAMM41 / RFU, KIAA1704 /// LOC100996395 / Fold change vs veh, KIAA1704 /// LOC100996395 / RFU, ING1 / Fold change vs veh, ING1 / RFU, TRMT61B / Fold change vs veh, TRMT61B / RFU, FUBP3 / Fold change vs veh, FUBP3 / RFU, TP53 / Fold change vs veh, TP53 / RFU, TNKS2 / Fold change vs veh, TNKS2 / RFU, ZFP14 / Fold change vs veh, ZFP14 / RFU, ACTR2 / Fold change vs veh, ACTR2 / RFU, PPP3R1 / Fold change vs veh, PPP3R1 / RFU, PIK3R1 / Fold change vs veh, PIK3R1 / RFU, HNRNPA1 / Fold change vs veh, HNRNPA1 / RFU, RNF170 / Fold change vs veh, RNF170 / RFU, ZNF28 / Fold change vs veh, ZNF28 / RFU, RNGTT / Fold change vs veh, RNGTT / RFU, OGT / Fold change vs veh, OGT / RFU, BRD1 / Fold change vs veh, BRD1 / RFU, MARS / Fold change vs veh, MARS / RFU, ZNF655 / Fold change vs veh, ZNF655 / RFU, FAHD1 / Fold change vs veh, FAHD1 / RFU, BDP1 / Fold change vs veh, BDP1 / RFU, LRRCC1 / Fold change vs veh, LRRCC1 / RFU, ARID1A / Fold change vs veh, ARID1A / RFU, ZNF146 / Fold change vs veh, ZNF146 / RFU, ZNF330 / Fold change vs veh, ZNF330 / RFU, GPN3 / Fold change vs veh, GPN3 / RFU, C9orf123 / Fold change vs veh, C9orf123 / RFU, N4BP2L2 / Fold change vs veh, N4BP2L2 / RFU, ARFIP1 / Fold change vs veh, ARFIP1 / RFU, FAM179B / Fold change vs veh, FAM179B / RFU, BCL10 / Fold change vs veh, BCL10 / RFU, UHRF1BP1L / Fold change vs veh, UHRF1BP1L / RFU, BET1 / Fold change vs veh, BET1 / RFU, CNOT2 / Fold change vs veh, CNOT2 / RFU, ZNF268 / Fold change vs veh, ZNF268 / Fold change vs veh, ZNF507 / RFU, DGCR2 / Fold change vs veh, DGCR2 / RFU, WDSUB1 / Fold change vs veh, WDSUB1 / Fold change vs veh, HSP90B1 /// MIR3652 / RFU, ADSS / Fold change vs veh, ADSS / RFU, GK / Fold change vs veh, GK / RFU, ZNF148 / Fold change vs veh, ZNF148 / RFU, TAF9 / Fold change vs veh, TAF9 / RFU, SLC1A5 / Fold change vs veh, SLC1A5 / RFU, SLMO2 / Fold change vs veh, SLMO2 / RFU, ABCC4 / Fold change vs veh, ABCC4 / RFU, LOC101060439 /// RAP1B / Fold change vs veh, LOC101060439 /// RAP1B / RFU, RFX7 / Fold change vs veh, RFX7 / RFU, GTPBP10 / Fold change vs veh, GTPBP10 / RFU, CNEP1R1 / Fold change vs veh, CNEP1R1 / RFU, BIVM-ERCC5 /// ERCC5 / Fold change vs veh, BIVM-ERCC5 /// ERCC5 / RFU, ILF3 / Fold change vs veh, ILF3 / RFU 11762660_at / Fold change /veh 11762660_at / RFU VCAN (11757783_s_at) / Fold change /veh VCAN (11757783_s_at) / RFU DDX43 (11728927_at) / Fold change /veh DDX43 (11728927_at) / RFU KRT8 (11758188_x_at) / Fold change /veh KRT8 (11758188_x_at) / RFU NKD1 (11759106_at) / Fold change /veh NKD1 (11759106_at) / RFU SRD5A1 (11742802_a_at) / Fold change /veh SRD5A1 (11742802_a_at) / RFU TPSAB1 /// TPSB2 (11721975_s_at) / Fold change /veh TPSAB1 /// TPSB2 (11721975_s_at) / RFU GSTM3 (11746129_a_at) / Fold change /veh GSTM3 (11746129_a_at) / RFU IL23R (11737362_x_at) / Fold change /veh IL23R (11737362_x_at) / RFU TMEM51 (11727254_a_at) / Fold change /veh TMEM51 (11727254_a_at) / RFU PIWIL2 (11732686_x_at) / Fold change /veh PIWIL2 (11732686_x_at) / RFU ORM1 (11744905_x_at) / Fold change /veh ORM1 (11744905_x_at) / RFU CCDC152 (11743942_at) / Fold change /veh CCDC152 (11743942_at) / RFU ECM1 (11717891_a_at) / Fold change /veh ECM1 (11717891_a_at) / RFU IL23R (11748794_a_at) / Fold change /veh IL23R (11748794_a_at) / RFU TNFAIP8L3 (11732012_x_at) / Fold change /veh TNFAIP8L3 (11732012_x_at) / RFU MBOAT4 (11741988_at) / Fold change /veh MBOAT4 (11741988_at) / RFU 11764193_at / Fold change /veh 11764193_at / RFU TMEM53 (11763286_at) / Fold change /veh TMEM53 (11763286_at) / RFU MAGEB2 (11727129_at) / Fold change /veh MAGEB2 (11727129_at) / RFU TMEM200A (11744735_a_at) / Fold change /veh TMEM200A (11744735_a_at) / RFU CCDC152 (11751479_a_at) / Fold change /veh CCDC152 (11751479_a_at) / RFU FAM211A (11726209_a_at) / Fold change /veh FAM211A (11726209_a_at) / RFU RGS16 (11746705_a_at) / Fold change /veh RGS16 (11746705_a_at) / RFU VCAN (11755009_s_at) / Fold change /veh VCAN (11755009_s_at) / RFU RHOB (11743442_s_at) / Fold change /veh RHOB (11743442_s_at) / RFU RGS16 (11720943_a_at) / Fold change /veh RGS16 (11720943_a_at) / RFU RGS16 (11720944_at) / Fold change /veh RGS16 (11720944_at) / RFU, VPS4B / Fold change vs veh, VPS4B / RFU, CREB1 / Fold change vs veh, CREB1 / RFU, DNAJC13 / Fold change vs veh, DNAJC13 / RFU, GNAQ / Fold change vs veh, GNAQ / RFU, CDK5R1 / Fold change vs veh, CDK5R1 / RFU, ZRANB3 / Fold change vs veh, ZRANB3 / RFU, CUL4A / Fold change vs veh, CUL4A / RFU, CCNY / Fold change vs veh, CCNY / RFU, UFL1 / Fold change vs veh, UFL1 / RFU, COG3 / Fold change vs veh, COG3 / RFU, DIAPH2 / Fold change vs veh, DIAPH2 / RFU, SKA2 / Fold change vs veh, SKA2 / RFU, AFF3 / Fold change vs veh, AFF3 / RFU, LMF1 / Fold change vs veh, LMF1 / RFU, IPO11 / Fold change vs veh, IPO11 / RFU, DFFB / Fold change vs veh, DFFB / RFU, FOXP1 / Fold change vs veh, FOXP1 / RFU, CARD8 / Fold change vs veh, CARD8 / RFU, STRN3 / Fold change vs veh, STRN3 / RFU, ADK / Fold change vs veh, ADK / RFU, RASSF2 / Fold change vs veh, RASSF2 / RFU, WIPF1 / Fold change vs veh, WIPF1 / RFU, LARP1B / Fold change vs veh, LARP1B / RFU, RASA1 / Fold change vs veh, RASA1 / RFU, RB1 / Fold change vs veh, RB1 / RFU, PPFIA1 / Fold change vs veh, PPFIA1 / RFU, MAT2A / Fold change vs veh, MAT2A / RFU, CCT5 / Fold change vs veh, CCT5 / RFU, WDR92 / Fold change vs veh, WDR92 / RFU, CUX1 / Fold change vs veh, CUX1 / RFU, TTC7A / Fold change vs veh, TTC7A / RFU, TMEM135 / Fold change vs veh, TMEM135 / RFU, DEPTOR / Fold change vs veh, DEPTOR / RFU, CPM / Fold change vs veh, CPM / RFU, DNAJB6 / Fold change vs veh, DNAJB6 / RFU, CACNA2D3 / Fold change vs veh, CACNA2D3 / RFU, DTX4 / Fold change vs veh, DTX4 / RFU, TFCP2 / Fold change vs veh, TFCP2 / RFU, GMCL1 /// GMCL1P1 / Fold change vs veh, GMCL1 /// GMCL1P1 / RFU, AEBP2 / Fold change vs veh, AEBP2 / RFU, SNHG1 /// SNORD22 /// SNORD25 /// SNORD26 /// SNORD27 /// SNORD28 /// SNORD29 /// SNORD31 / Fold change vs veh, SNHG1 /// SNORD22 /// SNORD25 /// SNORD26 /// SNORD27 /// SNORD28 /// SNORD29 /// SNORD31 / Fold change (Aza/veh), C12orf56 (ProbeSet 11735607_a_at) / Fold change (ACY-1035/veh), C12orf56 (ProbeSet 11735607_a_at) / Fold change (Aza/veh), FGFR1OP (ProbeSet 11751329_s_at) / Fold change (ACY-1035/veh), FGFR1OP (ProbeSet 11751329_s_at) / Fold change (Aza/veh), VPS36 (ProbeSet 11739960_a_at) / Fold change (ACY-1035/veh), VPS36 (ProbeSet 11739960_a_at) / RFU SYPL1 (11715823_x_at) / Fold change /veh SYPL1 (11715823_x_at) / RFU IGFBP7 (11715501_s_at) / Fold change /veh IGFBP7 (11715501_s_at) / RFU REEP3 (11722064_at) / Fold change /veh REEP3 (11722064_at) / RFU IGLL1 (11728026_x_at) / Fold change /veh IGLL1 (11728026_x_at): dose or concentration left out as unconfirmed. As to conditions: MV-4-11 cells, 48 hours.

As for `Nc1ncn([C@@H]2O[C@H](CO)[C@@H](O)[C@H]2O)c(=O)n1` [azacitidine], the “RFU LRRC4B (11730491_at)” value turned out to be 28.29 RFU.
